Holding throughout (format): cell-based
One assay deals with T1, PTGER2 (EP2) (Homo sapiens, UniProt P43116).
T1 construct: host or cells: HEK 293 (PathHunter PTGER2 b-arrestin cell line)
Kind of assay: hEP2 b-arrestin assay (PathHunter HEK 293 PTGER2 b-arrestin cells). The settings on record: antagonistic activity, beta-arrestin assay; read-out: hEP2 b-arr IC50. As for the experimental part:
(§1) The antagonistic activities of the compounds of formula (I) on the EP2 and EP4 receptors are determined in accordance with the following experimental method.
(§2) The assay is using the PathHunter™ HEK 293 PTGER2 and PTGER4 b-arrestin cell lines from DiscoverX. The system is based on the Enzyme Fragment Complementation Technology. Two complementing fragments of the b-galactosidase enzyme are expressed within stably transfected cells. The larger portion of b-gal, termed EA for Enzyme Acceptor, is fused to the C-terminus of b-arrestin 2. The smaller fragment, termed ProLink™ tag, is fused to PTGER2 (EP2) or PTRGER4 (EP4) at the C-terminus. Upon activation, b-arrestin is recruited which forces the interaction of ProLink and EA, allowing complementation of the two fragments of b-gal and the formation of a functional enzyme which is capable of hydrolysing the substrate and generating a chemiluminescent signal.
The HEK 293 PTGER2 b-arrestin cells (DiscoverX 93-021-4C1) are detached from culture dishes with a cell dissociation buffer (Invitrogen, 13151-014), and collected in growing medium (GM: DMEM+Glutamax-I (Invitrogen 32430)/10% FCS, 1% Penicilin/streptomycin). 5000 cells per well of a 384 well plate (white with white bottom Greiner 781080) are seeded in 20 ul per well of GM. Plate is incubated at 37° C., 5% C02 for 24 hours.
(§3) Stock solutions of test compounds are made at a concentration of 10 mM in DMSO, and serially diluted in DMSO to concentrations required for inhibition dose response curves (tested concentration range 10 μM-2 nM or 1 μM-0.2 nM).
PGE2 (Cayman 14010, stock solution: 10 mM in DMSO) is used as agonist at 5 μM final concentration, corresponding to EC80.
Five microliters of diluted compounds are transferred into the assay plate. Plate is pre-incubated 15 minutes at 37° C. Then five microliters of PGE2 (final conc. 5 μM) are transferred into the assay plate. Plate is incubated 120 minutes at 37° C.
(§4) PathHunter Glo Detection Kit components are thawed and mix according to manufacturer's instructions: 1 part Galacton Star Substrate with 5 parts Emerald II™ Solution, and 19 parts of PathHunter Cell Assay Buffer, respectively. Twelve μl of reagent are transferred to the assay plate and incubate for 1 hour at room temperature in the dark. Luminescence counts are read on a BMG Fluostar Optima reader according to manufacturer's instructions.
(§5) For each compound concentration calculate of the percentage of activity compared to DMSO control value as average±STDEV. (each concentration is measured in duplicate)
(§6) IC50 values and curves are generated with XLfit software (IDBS) using Dose-Response One Site model 203. When compounds were measured multiple times, mean values are given.

In a further assay the target is T2, PTGER4 (EP4) (Homo sapiens, UniProt P35408).
T2 construct: host or cells: HEK 293 (PathHunter PTGER4 b-arrestin cell line)
Kind of assay: hEP4 b-arrestin assay (PathHunter HEK 293 PTGER4 b-arrestin cells). The settings on record: antagonistic activity, beta-arrestin assay; read-out: hEP4 b-arr IC50. On the procedure: as §1, §2
The HEK 293 PTGER4 b-arrestin cells (DiscoverX 93-030-4C1) are detached from culture dishes with a cell dissociation buffer (Invitrogen, 13151-014), and collected in growing medium (GM: DMEM+Glutamax-I (Invitrogen 32430)/10% FCS, 1% Penicilin/streptomycin). 5000 cells per well of a 384 well plate (white with white bottom Greiner 781080) are seeded in 20 ul per well of GM. Plate is incubated at 37° C., 5% C02 for 24 hours.
as §3
PGE2 (Cayman 14010, stock solution: 100 uM in DMSO) is used as agonist at 20 nM final concentration, corresponding to EC80.
Five microliters of diluted compounds are transferred into the assay plate. Plate is pre-incubated 15 minutes at 37° C. Then five microliters of PGE2 (final conc. 20 nM) are transferred into the assay plate. Plate is incubated 120 minutes at 37° C.
as §4, §5, §6

Another assay concerns the target T3, EP4 receptor (Homo sapiens, UniProt P35408).
T3 construct: BT549 breast cancer cells, express high endogenous EP4 levels and very low EP2 levels; host or cells: BT549 breast cancer cells
Kind of assay: hEP4 cAMP assay (BT549 breast cancer cells, HTRF cAMP, PGE2 stimulation). The settings on record: antagonistic activity, PGE2 6 nM (EC80). As for the experimental part:
(§7) The antagonistic activities of the compounds of formula (I) on the EP2 and EP4 receptors are also determined in accordance with the following experimental method.
(§8) Human tumor cell lines expressing endogenously either EP4 or EP2 are used and cAMP accumulation in cells upon PGE2 stimulation is monitored. SF295 glioblastoma cells express high endogenous EP2 and no EP4, whereas BT549 breast cancer cells, express high endogenous EP4 levels and very low EP2 levels.
(§9) As a detection method for cAMP the HTRF (homogeneous time resolved fluorescence) Cisbio kit (HTRF cAMP dynamic 2 kit 20′000 tests Cisbio Cat. #62AM4PEC) was used, which is based on a competitive immunoassay using a Cryptate-labeled anti-cAMP antibody and d2-labeled cAMP. Native cAMP produced by cells or unlabeled cAMP (for the standard curve) compete with exogenously added d2-labeled cAMP (acceptor) for binding to monoclonal anti-cAMP-Eu3+ Cryptate (donor). A FRET signal (Fluorescence Resonance Energy Transfer) is obtained only if the labeled anti-cAMP antibody binds the d2 labelled cAMP, thus the specific signal (i.e. energy transfer) is inversely proportional to the concentration of cAMP in the standard or sample.
The BT549 cells (NCI/No. 0507282) are detached from culture dishes with a cell dissociation buffer (Invitrogen, 13151-014), and collected in growing medium (GM: RPMI1640 (Invitrogen 21875)/10% FCS, 1% Penicilin/streptomycin). Cells are counted washed and resuspended in assay buffer (AB; HBSS, 20 mM HEPES, 0.2% BSA; 2 mM IBMX). 4′000 cells in 5 μl of AB are seeded per well of a small volume 384 well plate (black with flat bottom, Greiner 784076).
Stock solutions of test compounds are made at a concentration of 10 mM in DMSO, and serially diluted in DMSO to concentrations required for inhibition dose response curves (tested concentration range 30 μM-0.4 nM; 30 μM-0.015 nM or 1 uM-0.01 nM).
PGE2 (Cayman 14010, stock solution: 6 μM in DMSO) is used as agonist at 6 nM final concentration, corresponding to EC80.
Two point five microliters of diluted compounds are transferred into the assay plate. Plate is pre-incubated 45 minutes at room temperature. Subsequently, 2.5 microliters of PGE2 (final conc. 6 nM) are transferred into the assay plate. Plate is incubated 30 minutes at room temperature. Five μl of each donor (anti-cAMP cryptate) and acceptor (cAMP-d2) are added and the plate is incubated another hour at room temperature in the dark and then read using a BMG LABTECH PHERAstar reader (Excitation:337 nm, Emission:620 and 665 nm).
The obtained Delta F(fluorescence) values (665 nm/620 nM) are converted into % cAMP values using the measurements of the cAMP calibrator provided in the kit. For each compound concentration the percentage of cAMP compared to DMSO control value as average±STDEV (each concentration is measured in duplicate) is calculated.
as §6
In general terms: Changes in cAMP serve as a functional read-out for many G protein-coupled receptors.

A further assay concerns the target T4, EP2 receptor (Homo sapiens, UniProt P43116).
T4 construct: SF295 glioblastoma cells express high endogenous EP2 and no EP4; host or cells: SF295 glioblastoma cells
Kind of assay: hEP2 cAMP assay (SF295 glioblastoma cells, HTRF cAMP, PGE2 stimulation). The settings on record: antagonistic activity. On the procedure: as §7, §8, §9
The SF295 cells (NCI/No. 0503170) are detached from culture dishes with a cell dissociation buffer (Invitrogen, 13151-014), and collected in growing medium (GM: RPM1640 (Invitrogen 21875)/10% FCS, 1% Penicilin/streptomycin). Cells are counted washed and resuspended in assay buffer (AB; HBSS, 20 mM HEPES, 0.2% BSA; 2 mM IBMX). 4′000 cells in 5 μl of AB are seeded per well of a small volume 384 well plate (black with flat bottom, Greiner 784076).
Stock solutions of test compounds are made at a concentration of 10 mM in DMSO, and serially diluted in DMSO to concentrations required for inhibition dose response curves (tested concentration range 30 μM-0.4 nM; 30 μM-0.015 nM or 1 μM-0.01 nM).
PGE2 (Cayman 14010, stock solution: 75 μM in DMSO) is used as agonist at 75 nM final concentration, corresponding to EC80.
Two point five microliters of diluted compounds are transferred into the assay plate. Plate is pre-incubated 45 minutes at room temperature. Subsequently, 2.5 microliters of PGE2 (final conc. 75 nM) are transferred into the assay plate. Plate is incubated 30 minutes at room temperature. Five μl of each donor (anti-cAMP cryptate) and acceptor (cAMP-d2) are added and the plate is incubated another hour at room temperature in the dark and then read using a BMG LABTECH PHERAstar reader (Excitation: 337 nm, Emission: 620 and 665 nm).
The obtained Delta F (fluorescence) values (665 nm/620 nM) are converted into % cAMP values using the measurements of the cAMP calibrator provided in the kit. For each compound concentration the percentage of cAMP compared to DMSO control value as average±STDEV (each concentration is measured in duplicate) is calculated.
as §6

T2 sequence (P35408 whole entry): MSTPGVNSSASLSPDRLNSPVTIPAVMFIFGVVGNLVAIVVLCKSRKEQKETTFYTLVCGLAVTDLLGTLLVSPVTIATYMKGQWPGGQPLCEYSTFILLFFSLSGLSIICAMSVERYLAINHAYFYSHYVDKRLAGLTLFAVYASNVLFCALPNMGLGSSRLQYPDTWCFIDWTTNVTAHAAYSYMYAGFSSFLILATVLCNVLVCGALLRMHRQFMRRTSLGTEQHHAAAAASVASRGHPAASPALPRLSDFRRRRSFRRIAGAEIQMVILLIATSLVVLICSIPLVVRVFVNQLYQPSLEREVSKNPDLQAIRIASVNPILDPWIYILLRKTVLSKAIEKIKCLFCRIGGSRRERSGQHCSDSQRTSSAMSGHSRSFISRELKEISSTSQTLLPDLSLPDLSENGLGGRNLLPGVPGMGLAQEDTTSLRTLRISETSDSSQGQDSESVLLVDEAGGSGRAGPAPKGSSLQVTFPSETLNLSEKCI
T3 sequence (P35408 whole entry): as above
T1 sequence (P43116 whole entry): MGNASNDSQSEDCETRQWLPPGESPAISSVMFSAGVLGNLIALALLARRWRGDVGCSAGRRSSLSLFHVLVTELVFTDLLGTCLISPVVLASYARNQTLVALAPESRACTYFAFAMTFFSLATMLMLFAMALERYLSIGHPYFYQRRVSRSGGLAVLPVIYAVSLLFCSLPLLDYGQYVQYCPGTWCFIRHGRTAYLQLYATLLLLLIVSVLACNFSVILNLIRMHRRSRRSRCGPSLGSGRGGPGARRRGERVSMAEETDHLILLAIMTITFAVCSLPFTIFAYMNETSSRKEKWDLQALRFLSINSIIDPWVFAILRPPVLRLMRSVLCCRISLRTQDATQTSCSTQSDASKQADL
T4 sequence (P43116 whole entry): as above

With `COc1cc(Cl)cc2c(CCNc3cc(-c4cc(C)c(C(=O)O)s4)ncn3)c(C)oc12` [Example 1, 5-{6-[2-(5-Chloro-7-methoxy-2-methyl-benzofuran-3-yl)-ethylamino]-pyrimidin-4-yl}-3-methyl-thiophene-2-carboxylic acid], the IC50 on PTGER2 (EP2) stood at 0.059 µM; at PTGER4 (EP4), 0.142 µM; on EP4 receptor, 0.022 µM.
For the compound `Cc1sc2c(Cl)ccc(Cl)c2c1CCNc1cc(-c2ccc(C(=O)O)c(O)c2)ncn1` [Example 11, 4-{6-[2-(4,7-Dichloro-2-methyl-benzo[b]thiophen-3-yl)-ethylamino]-pyrimidin-4-yl}-2-hydroxy-benzoic acid], the IC50 was found to be 0.099 µM at PTGER2 (EP2), 3.09 µM on PTGER4 (EP4) and 0.071 µM against EP2 receptor.
Turning to `CCOc1cc(-c2cc(NCCc3c(C#N)sc4c(C)cc(F)cc34)ncn2)sc1C(=O)O` [Example 26, 5-{6-[2-(2-Cyano-5-fluoro-7-methyl-benzo[b]thiophen-3-yl)-ethylamino]-pyrimidin-4-yl}-3-ethoxy-thiophene-2-carboxylic acid], the IC50 on EP2 receptor came out at 0.001 µM; at EP4 receptor, 0.002 µM.
As for `Cc1sc2c(C)cc(F)cc2c1CCNc1cc(-c2cc(OCCO)c(C(=O)O)s2)ncn1` [Example 41, 5-{6-[2-(5-Fluoro-2,7-dimethyl-benzo[b]thiophen-3-yl)-ethylamino]-pyrimidin-4-yl}-3-(2-hydroxy-ethoxy)-thiophene-2-carboxylic acid], the IC50 worked out at 0.013 µM on EP2 receptor and 0.042 µM at EP4 receptor.
For the compound `CSc1cc(-c2cc(NCCc3c(C)sc4ccccc34)ncn2)cc(F)c1C(=O)O` [Example 48, 2-Fluoro-4-{6-[2-(2-methyl-benzo[b]thiophen-3-yl)-ethylamino]-pyrimidin-4-yl}-6-methylsulfanyl-benzoic acid], the IC50 at PTGER2 (EP2) was 0.005 µM; at PTGER4 (EP4), 3.38 µM; against EP2 receptor it was 0.002 µM.
Consider `CSc1cc(-c2cc(NCCc3c(C)oc4ccccc34)ncn2)cc(F)c1C(=O)O` [Example 49, 2-Fluoro-4-{6-[2-(2-methyl-benzofuran-3-yl)-ethylamino]-pyrimidin-4-yl}-6-methylsulfanyl-benzoic acid], for which the results for the IC50 on PTGER2 (EP2), on PTGER4 (EP4) and at EP2 receptor were 0.002 µM, 3.62 µM and 0.001 µM, respectively.
As to `CSc1cc(-c2cc(NCCc3c(C)oc4ccccc34)ncn2)cc(Cl)c1C(=O)O` [Example 51, 2-Chloro-4-{6-[2-(2-methyl-benzofuran-3-yl)-ethylamino]-pyrimidin-4-yl}-6-methylsulfanyl-benzoic acid], the IC50 at PTGER2 (EP2) amounted to 0.01 µM; at PTGER4 (EP4) it was 3.49 µM; at EP2 receptor, 0.001 µM.
For the compound `CCOc1cc(-c2cc(NCCc3c(C)oc4ccccc34)ncn2)ccc1C(=O)O` [Example 73, 2-Ethoxy-4-{6-[2-(2-methyl-benzofuran-3-yl)-ethylamino]-pyrimidin-4-yl}-benzoic acid], the IC50 at PTGER2 (EP2) was 0.005 µM; on PTGER4 (EP4), 3.5 µM; against EP2 receptor, 0.004 µM.
Take `COc1cc(-c2cc(NCCc3c(C)sc4c(C)ccc(F)c34)ncn2)cc(C)c1C(=O)O` [Example 74, 4-{6-[2-(4-Fluoro-2,7-dimethyl-benzo[b]thiophen-3-yl)-ethylamino]-pyrimidin-4-yl}-2-methoxy-6-methyl-benzoic acid]: the IC50 on EP2 receptor turned out to be 0.273 µM; against EP4 receptor, 0.644 µM.
Consider `Cc1sc2c(C)cccc2c1CCNc1cc(-c2ccc3oc(C(=O)O)cc3c2)ncn1` [Example 78, 5-{6-[2-(2,7-Dimethyl-benzo[b]thiophen-3-yl)-ethylamino]-pyrimidin-4-yl}-benzofuran-2-carboxylic acid], for which the IC50 at EP2 receptor came to 0.007 µM; on EP4 receptor, 0.087 µM.
Turning to “(4-{6-[2-(2-Cyano-benzo[b]thiophen-3-yl)-ethylamino]-pyrimidin-4-yl}-2-ethoxy-phenyl)-acetic acid [Example 175]”, the IC50 at PTGER2 (EP2) worked out at 0.089 µM; at PTGER4 (EP4), 0.492 µM.

For orientation: IC50 means the concentration that inhibits the measured activity by half.

(Values after patent US11325899B2, “Benzofurane and benzothiophene derivatives as PGE2 receptor modulators” (IDORSIA PHARMACEUTICALS LTD, priority 2017, dated 2022).)
